The series can be described thus: Leaching stress test B following DIN EN 16105, nine immersion cycles (Beispiel 10 B). The format is physicochemical. The note with it: Immersion test B (DIN EN 16105), medium Wasser, plastic TPU, Rezeptur 1 nach Beispiel 1. Here is the method: Der Test wurde in Anlehnung an die DIN EN 16105:2011-12 ("[…] zur Bestimmung der Freisetzung von Substanzen aus Beschichtungen in intermittierendem […] unter A) beschrieben erzeugt. Es wurde vollentsalztes Wasser mit einem pH-Wert von (6 ± 1) und einer Wassertemperatur von (22 ± 3) °C verwendet. Beim Test wurden jeweils neun Tauchzyklen durchgeführt. […] Die erforderliche Wassermenge (z. B. 250 mL pro 100 cm2) musste hinzugefügt werden. Für jedes Eintauchen wurde frisches deionisiertes Wasser verwendet. Jeder Probekörper wurde in […]. Die […] so […] von Wasser mit der untersuchten Oberfläche möglich war. Der Tauchbehälter wurde dabei abgedeckt, um ein Verdunsten von Wasser während des Eintauchens zu […]. Der Überschuss wird direkt im UV-VIS-Spektrometer vermessen, vor dem ersten Immersionszyklus und nach Zyklen 1, 3, 5, 7 und 9. Die Ausgangswerte (Absorptionsmaximum des jeweiligen […] dabei zwischen 0,05 A.U. und 1,00 A.U. liegen. Die […] Immersionstest B

Take `CC(C)(O)c1cc[n+](CC2=Cc3cccc4cccc(c34)C2=O)cc1` [F-24b]: the “Abs. nach Auswaschen” value is reported as 0,006 and the “Berechneter Verlust in %” value is given as 4,9%.

The values are drawn from EP4458804A1, “METHOD FOR PRODUCING AN OBJECT, PHENALEN-1-ONE COMPOUND AND USE THEREOF” (TriOptoTec GmbH, priority 2023, dated 2024).
